Target: Mitogen-activated protein kinase 9 (Homo sapiens, UniProt P45984)
Test: Inhibition of His6-tagged JNK2 (unknown origin) assessed as reduction in c-Jun phosphorylation using GST-c-Jun (1 to 79 residues) and [gamma32P]ATP incubated for 1 hr by scintillation counting assay

Sequence of Mitogen-activated protein kinase 9 (P45984 whole entry, the tested form may be a part): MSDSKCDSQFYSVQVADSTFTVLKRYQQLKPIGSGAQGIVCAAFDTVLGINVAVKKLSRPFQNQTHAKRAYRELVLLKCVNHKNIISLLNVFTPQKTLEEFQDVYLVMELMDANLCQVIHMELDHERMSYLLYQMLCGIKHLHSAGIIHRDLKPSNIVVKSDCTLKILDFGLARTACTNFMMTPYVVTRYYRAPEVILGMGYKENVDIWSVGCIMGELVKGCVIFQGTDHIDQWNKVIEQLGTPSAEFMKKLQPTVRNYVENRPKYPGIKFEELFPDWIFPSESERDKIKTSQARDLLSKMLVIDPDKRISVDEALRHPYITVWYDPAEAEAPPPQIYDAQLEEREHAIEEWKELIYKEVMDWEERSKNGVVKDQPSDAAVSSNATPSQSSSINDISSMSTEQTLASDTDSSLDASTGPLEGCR

SMILES | IC50 [µM]
CN(C)C(=O)c1ccc2[nH]nc(-c3ccc(F)cc3)c2c1 | ≤ 10
COc1ccc(-c2n[nH]c3ccc(NC(=O)c4ccc(C(=O)O)cc4)cc23)cc1 | 1 to 10
Oc1ccc2[nH]nc(-c3ccccc3)c2c1 | 1 to 10
Fc1ccc(-c2n[nH]c3ccc(-c4cc[nH]n4)cc23)cc1 | 1 to 10
Nc1ccc2[nH]nc(-c3ccccc3)c2c1 | ≤ 10
Fc1ccc(-c2n[nH]c3ccc(-c4nc(-c5ccncc5)n[nH]4)cc23)cc1 | 1 to 10
NC(=O)CCCNC(=O)c1ccc2[nH]nc(-c3ccc(F)cc3)c2c1 | 1 to 10
COc1ccccc1C(=O)Nc1ccc2[nH]nc(-c3ccc(F)cc3)c2c1 | ≤ 10
Fc1ccc(-c2n[nH]c3ccc(NCc4cccnc4)cc23)cc1 | ≤ 10
O=C(Nc1ccc2[nH]nc(-c3ccc(F)cc3)c2c1)c1ccccc1O | 1 to 10
Cc1ccccc1C(=O)Nc1ccc2[nH]nc(-c3ccc(F)cc3)c2c1 | 1 to 10
Fc1ccc(-c2n[nH]c3ccc(-c4nc5ccccc5[nH]4)cc23)cc1 | ≤ 10
CNC(=O)c1ccc2[nH]nc(-c3ccc(F)cc3)c2c1 | 1 to 10
O=C(c1ccc2[nH]nc(-c3ccc(F)cc3)c2c1)N1CCNCC1 | ≤ 10
COc1ccc(-c2n[nH]c3ccc(N)cc23)cc1 | ≤ 10
CCOC(=O)c1ccc2[nH]nc(-c3ccc(F)cc3)c2c1 | 1 to 10
O=C(O)Cc1ccc(NC(=O)c2ccc3[nH]nc(-c4ccc(F)cc4)c3c2)cc1 | 1 to 10
CN(C)CCNC(=O)c1ccc2[nH]nc(-c3ccc(F)cc3)c2c1 | ≤ 10
Nc1ccc2[nH]nc(-c3cccc(C(F)(F)F)c3)c2c1 | ≤ 10
CC(C)(C)OC(=O)NNC(=O)c1ccc2[nH]nc(-c3ccc(F)cc3)c2c1 | 1 to 10
O=C(Nc1cccnc1)c1ccc2[nH]nc(-c3ccc(F)cc3)c2c1 | 1 to 10
O=C(NCc1ccncc1)c1ccc2[nH]nc(-c3ccc(F)cc3)c2c1 | 1 to 10
NC(=O)c1ccc(NC(=O)c2ccc3[nH]nc(-c4ccc(F)cc4)c3c2)cc1 | 1 to 10

SMILES | IC50 [µM]
COC(=O)c1ccc(C(=O)Nc2ccc3[nH]nc(-c4ccc(F)cc4)c3c2)cc1 | ≤ 10
CC(C)c1n[nH]c(-c2ccc3[nH]nc(-c4ccc(F)cc4)c3c2)n1 | 0.5 to 10
O=S(=O)(Nc1ccc2[nH]nc(-c3ccc(F)cc3)c2c1)c1ccccc1 | ≤ 10
Fc1ccc(-c2n[nH]c3ccc(-c4nnc(Cc5ccccc5)[nH]4)cc23)cc1 | 1 to 10
O=C(c1ccc2[nH]nc(-c3ccc(F)cc3)c2c1)N1CCCC1 | ≤ 10
O=C(Nc1ccccc1)c1ccc2[nH]nc(-c3ccc(F)cc3)c2c1 | ≤ 10
FC(F)(F)c1ccc2[nH]nc(-c3ccccc3)c2c1 | ≤ 10
Nc1ccc(-c2nnc(-c3ccc4[nH]nc(-c5ccc(F)cc5)c4c3)[nH]2)cc1 | 1 to 10
O=C(NCc1ccccn1)c1ccc2[nH]nc(-c3ccc(F)cc3)c2c1 | 1 to 10
O=C(Nc1ccncc1)c1ccc2[nH]nc(-c3ccc(F)cc3)c2c1 | 1 to 10
O=C(Nc1ccc2[nH]nc(-c3ccc(F)cc3)c2c1)c1cccs1 | 1 to 10
O=C(O)CCCNC(=O)c1ccc2[nH]nc(-c3ccc(F)cc3)c2c1 | 1 to 10
O=[N+]([O-])c1cccc(/C=C/c2ccc3[nH]nc(-c4ccc(F)cc4)c3c2)c1 | ≤ 10
O=C(NO)c1ccc2[nH]nc(-c3ccc(F)cc3)c2c1 | 1 to 10
O=C(O)c1ccc(C(=O)Nc2ccc3[nH]nc(-c4ccccc4)c3c2)cc1 | 1 to 10
O=C(NCc1cccnc1)c1ccc2[nH]nc(-c3ccc(F)cc3)c2c1 | 1 to 10
O=C(O)c1cccc(C(=O)Nc2ccc3[nH]nc(-c4ccc(F)cc4)c3c2)c1 | 1 to 10
O=C(Nc1ccc2[nH]nc(-c3ccccc3)c2c1)c1ccccc1O | 1 to 10
O=C(NCCCN1CCOCC1)c1ccc2[nH]nc(-c3ccc(F)cc3)c2c1 | ≤ 10
O=C(Nc1ccc(F)cc1)Nc1ccc2[nH]nc(-c3ccc(F)cc3)c2c1 | ≤ 10
Cc1n[nH]c(-c2ccc3[nH]nc(-c4ccc(F)cc4)c3c2)n1 | 1 to 10
O=C(Nc1ccc2[nH]nc(-c3ccccc3)c2c1)c1ccccn1 | 1 to 10
CC(C)(C)OC(=O)CCNC(=O)c1ccc2[nH]nc(-c3ccc(F)cc3)c2c1 | ≤ 10

SMILES | IC50 [µM]
CC(C)(C)OC(=O)CNC(=O)c1ccc2[nH]nc(-c3ccc(F)cc3)c2c1 | 1 to 10
O=C(Nc1ccc2[nH]nc(-c3ccc(F)cc3)c2c1)C1CC1 | ≤ 10
O=C(Nc1nnn[nH]1)c1ccc2[nH]nc(-c3ccc(F)cc3)c2c1 | 1 to 10
O=C(Nc1ccc2[nH]nc(-c3ccc(F)cc3)c2c1)c1ccncc1 | 1 to 10
O=C(Nc1cccc(O)c1)c1ccc2[nH]nc(-c3ccc(F)cc3)c2c1 | 1 to 10
CNC(=O)c1ccc(C(=O)Nc2ccc3[nH]nc(-c4ccc(F)cc4)c3c2)cc1 | 1 to 10
O=C(Nc1ccc2[nH]nc(-c3ccc(F)cc3)c2c1)c1ccccc1 | 1 to 10
Fc1ccc(-c2n[nH]c3ccc(-c4nn[nH]n4)cc23)cc1 | 0.5 to 10
Nc1ccc(C(=O)Nc2ccc3[nH]nc(-c4ccccc4)c3c2)cc1 | 1 to 10
O=[N+]([O-])c1ccc2[nH]nc(-c3cccc4ccccc34)c2c1 | ≤ 10
CCOc1cccc(-c2n[nH]c3ccc([N+](=O)[O-])cc23)c1 | ≤ 10
O=C(Nc1ccc2[nH]nc(-c3ccc(F)cc3)c2c1)c1ccco1 | 1 to 10
Fc1ccc(-c2n[nH]c3ccc(/C=C/c4ccncc4)cc23)cc1 | ≤ 10
O=C(O)c1ccc(CNC(=O)c2ccc3[nH]nc(-c4ccc(F)cc4)c3c2)cc1 | 1 to 10
Fc1ccc(-c2n[nH]c3ccc(NCc4ccncc4)cc23)cc1 | 1 to 10
O=C(O)CCCCNC(=O)c1ccc2[nH]nc(-c3ccc(F)cc3)c2c1 | 1 to 10
NC(=O)c1ccc2[nH]nc(-c3ccc(F)cc3)c2c1 | 1 to 10
CCOC(=O)Cc1n[nH]c(-c2ccc3[nH]nc(-c4ccc(F)cc4)c3c2)n1 | 1 to 10
CC(=O)Nc1ccc2[nH]nc(-c3ccccc3)c2c1 | 1 to 10
O=C(Nc1ccc2[nH]nc(-c3ccc(F)cc3)c2c1)N1CCOCC1 | ≤ 10
O=C(NOCc1ccccc1)c1ccc2[nH]nc(-c3ccc(F)cc3)c2c1 | ≤ 10
NC(=O)CCNC(=O)c1ccc2[nH]nc(-c3ccc(F)cc3)c2c1 | 1 to 10
O=C(O)C1CCN(C(=O)c2ccc3[nH]nc(-c4ccc(F)cc4)c3c2)CC1 | ≤ 10

SMILES | IC50 [µM]
c1ccc(COc2ccc3[nH]nc(-c4ccccc4)c3c2)cc1 | ≤ 10
CC(O)CNC(=O)c1ccc2[nH]nc(-c3ccc(F)cc3)c2c1 (stereo unspecified) | 1 to 10
NNC(=O)c1ccc2[nH]nc(-c3ccc(F)cc3)c2c1 | 1 to 10
O=C(O)c1ccc(NC(=O)c2ccc3[nH]nc(-c4ccc(F)cc4)c3c2)cc1 | 1 to 10
CCNc1ccc2[nH]nc(-c3ccc(F)cc3)c2c1 | ≤ 10
CCCc1n[nH]c(-c2ccc3[nH]nc(-c4ccc(F)cc4)c3c2)n1 | 1 to 10
COc1ccc(-c2n[nH]c3ccc([N+](=O)[O-])cc23)cc1OC | ≤ 10
O=[N+]([O-])c1ccc2[nH]nc(-c3cccc(C(F)(F)F)c3)c2c1 | ≤ 10
O=C(Nc1cccc([N+](=O)[O-])c1)c1ccc2[nH]nc(-c3ccc(F)cc3)c2c1 | 1 to 10
O=C(Nc1ccccn1)c1ccc2[nH]nc(-c3ccc(F)cc3)c2c1 | ≤ 10
Fc1ccc(-c2n[nH]c3ccc(/C=C/c4ccccn4)cc23)cc1 | ≤ 10
Fc1ccc(-c2n[nH]c3ccc(-c4nc(-c5ccccc5)n[nH]4)cc23)cc1 | 1 to 10
Cn1cncc1CCNC(=O)c1ccc2[nH]nc(-c3ccc(F)cc3)c2c1 | 1 to 10
CCOC(=O)C1CCN(C(=O)c2ccc3[nH]nc(-c4ccc(F)cc4)c3c2)CC1 | ≤ 10
COC(=O)c1ccc(NC(=O)c2ccc3[nH]nc(-c4ccc(F)cc4)c3c2)cc1 | ≤ 10
O=C(NCC1CCCC[C@H]1O)c1ccc2[nH]nc(-c3ccc(F)cc3)c2c1 (stereo partly specified) | 1 to 10
O=C(O)c1ccc(C(=O)Nc2ccc3[nH]nc(-c4ccc(F)cc4)c3c2)cc1 | 1 to 10
O=C(O)CCNC(=O)c1ccc2[nH]nc(-c3ccc(F)cc3)c2c1 | 1 to 10
O=C(Nc1ccc2[nH]nc(-c3ccc(F)cc3)c2c1)c1ccccn1 | 1 to 10
Cc1nnc(-c2ccc3[nH]nc(-c4ccc(F)cc4)c3c2)o1 | 1 to 10
O=[N+]([O-])c1ccc2[nH]nc(-c3ccoc3)c2c1 | ≤ 10
COC(=O)c1cccc(C(=O)Nc2ccc3[nH]nc(-c4ccc(F)cc4)c3c2)c1 | ≤ 10
Nc1ccc2[nH]nc(-c3ccc(F)cc3)c2c1 | ≤ 10

SMILES | IC50 [µM]
Cc1ccc2[nH]nc(-c3ccccc3)c2c1 | ≤ 10
O=C(O)c1ccc(C(=O)Nc2ccc3[nH]nc(-c4ccncc4)c3c2)cc1 | 1 to 10
O=C(O)/C=C/c1ccc2[nH]nc(-c3ccc(F)cc3)c2c1 | 1 to 10
O=C(Nc1ccc2[nH]nc(-c3ccccc3)c2c1)c1ccccc1 | 1 to 10
CCOC(=O)CCc1ccc2[nH]nc(-c3ccc(F)cc3)c2c1 | ≤ 10
O=C(O)CNC(=O)c1ccc2[nH]nc(-c3ccc(F)cc3)c2c1 | 1 to 10
O=[N+]([O-])c1ccc2[nH]nc(-c3ccc4ccccc4c3)c2c1 | ≤ 10
O=C(Nc1ccc2[nH]nc(-c3ccc(F)cc3)c2c1)c1cccnc1 | 1 to 10
Fc1ccc(-c2n[nH]c3ccc(-c4ncc[nH]4)cc23)cc1 | 1 to 10
COc1ccc(-c2n[nH]c3ccc([N+](=O)[O-])cc23)cc1 | ≤ 10
NCCNC(=O)c1ccc2[nH]nc(-c3ccc(F)cc3)c2c1 | ≤ 10
Nc1cccc(NC(=O)c2ccc3[nH]nc(-c4ccc(F)cc4)c3c2)c1 | 1 to 10
Fc1ccc(-c2n[nH]c3ccc(-c4nnc[nH]4)cc23)cc1 | 0.5 to 10
Fc1ccc(-c2n[nH]c3ccc(-c4nc(-c5ccco5)n[nH]4)cc23)cc1 | 1 to 10
Nc1cccc(C(=O)Nc2ccc3[nH]nc(-c4ccccc4)c3c2)c1 | 1 to 10
NC(=O)c1ccc(C(=O)Nc2ccc3[nH]nc(-c4ccc(F)cc4)c3c2)cc1 | 1 to 10
O=C(O)c1ccc2[nH]nc(-c3ccc(F)cc3)c2c1 | 1 to 10
NCCCNC(=O)c1ccc2[nH]nc(-c3ccc(F)cc3)c2c1 | 1 to 10
O=[N+]([O-])c1ccc2[nH]nc(-c3ccccc3)c2c1 | ≤ 10

From ChEMBL document CHEMBL3882725, “Indazole derivatives as JNK inhibitors and compositions and methods related thereto” (2002)
